From US9212359B2, “Systems for induction of gene expression and protein depletion in yeast” (priority 2011, dated 2015)

Columns and labels:
Format in all cases: cell-based, S. cerevisiae
[1] = system: DBY12021; assay: Genome-wide expression after β-estradiol pulse in phosphate-limited chemostat, microarray (DBY12021)
Experimental: (§1) For induction experiments, yeast were cultured in 500 mL chemostats (Sixfors; Bottmingen, Switzerland) under phosphate-limitation (20 mg/L potassium phosphate) and pulsed with 1 μM β-estradiol (Tocris Biosciences; Missouri). For the MET4 induction experiment, phosphate-limited media was supplemented with 200 mg/L methionine. Culture volume was maintained at 300 mL. 12-18 hours of batch phase growth prior to pump turn-on was initiated from a 1/60 dilution of cells grown overnight in the same medium. Cultures were grown at 30° C., stirred at 400 RPM, and aerated at 5 L/min with filtered humidified air.
RNA from cells was extracted, labeled, and hybridized to Agilent expression microarrays as described by (Brauer et al., 2008) with slight modifications. Briefly, RNA was extracted from frozen cells with a standard acid-phenol method and then cleaned with RNeasy (Qiagen). Cleaned mRNA was then converted to cDNA and subsequently converted to labeled cRNA with the Agilent Quick-Amp Labeling Kit (Part No. 5190-0424). Microarray hybridizations were performed for 17 hours at 65° C. and rotated on a rotisserie at 20 RPM. Microarrays were washed and then scanned with Agilent Feature Extractor Software version 9.5. Flagged features marked as unreliable were marked N/A. Raw green- and red-channel intensities were floored to a value of 350 (i.e., intensities below 350 were set equal to 350). If the numerator (red-channel, sample RNA) for a given measurement was floored, the denominator (green-channel, reference RNA) for that measurement was set to the average green channel intensity for that gene. The purpose of this smoothing process is to make genes with negligible red-channel signal intensity less sensitive to small fluctuations in the reference intensity. After flooring of the data, the log 2 ratios were computed.
For time series experiments, 5 mL of cells were taken per culture per time point. Reference RNA was taken from DBY12001 grown in a phosphate-limited chemostat at a dilution rate of 0.18 h^−1. Enrichment for gene ontology (GO) terms was determined using GO-term finder (Boyle et al., 2004).

[2] = system: PGAL1-CBF1; assay: GEV-mediated induction of PGAL1-CBF1 transcript, microarray (DBY12040); conditions: by 5 minutes following addition of β-estradiol
Experimental: as §1
RNA from cells was extracted, labeled, and hybridized to Agilent expression microarrays as described by (Brauer et al., 2008) with slight modifications. Briefly, RNA was extracted from frozen cells with a standard acid-phenol method and then cleaned with RNeasy (Qiagen). Cleaned mRNA was then converted to cDNA and subsequently converted to labeled cRNA with the Agilent Quick-Amp Labeling Kit (Part No. 5190-0424). Microarray hybridizations were performed for 17 hours at 65° C. and rotated on a rotisserie at 20 RPM. Microarrays were washed and then scanned with Agilent Feature Extractor Software version 9.5. […]
For time series experiments, 5 mL of cells were taken per culture per time point. […] Enrichment for gene ontology (GO) terms was determined using GO-term finder (Boyle et al., 2004).

[3] = system: DBY12021; assay: Growth curves in YPD liquid with β-estradiol
Experimental: 100 μL of cells+media were grown on flat-bottom 96-well plates (Costar #3631). A600 was measured every 15 minutes in a Synergy HT (Biotek; Vermont) microplate reader. Cells were grown at 30° C. with medium shaking. Growth rates were computed with spline-fits using the grofit R package (KAHM et al. 2010).

[4] = system: GEV-GFP; assay: GEV-GFP nuclear localization after β-estradiol pulse, single-cell microscopy (DBY11415)
Experimental: Fluorescence was measured with an epifluorescence Nikon Eclipse-TI inverted microscope using a Nikon 40×/0.95NA DIC Plan Apo objective. The microscope is equipped with a PerfectFocus system (Nikon) for maintaining the correct focal plane, a Clara CCD Camera (Andor DR328G) for recording fluorescence emission, and a TI-S-ER motorized stage with encoders to ensure near perfect return to marked stage positions (Nikon MEC56100). GEV-GFP emission was visualized at 525 nm (50-nm bandwidth) upon excitation at 470 nm (40-nm bandwidth) (Chroma #49002_Nikon ETGFP filter cube). […]
Overnight cultures of DBY11415 (MATa/MATα HTB2-mCherry-caURA3/HTB2 his3/HIS3, (gal1+PGAL10):: loxP/GAL1, gal4::LEU2/GAL4, HAP1+/hap1−, leu2Δ0::PACT1-GEV-GFP-KanMX/LEU2) were grown in LFM overnight to saturation. […] The Klett was monitored, and at Klett 40 cells were loaded into 96-well glass-bottomed optical plates for microscopy (Nunc #265300). […]
Image processing was performed by preprocessing the images in ImageJ and then using a custom written Matlab script to extract the intensities in the nuclei relative to the cytoplasm. Briefly, the image processing was done as follows: Fluorescence images were background subtracted using the rolling ball background subtraction command in ImageJ using a ball radius of 50 pixels. […]
These preprocessed images were then analyzed using a custom-written Matlab script. […]

[5] = system: TEV protease / N-end rule degradation; assay: Western blot of N-degron-tagged proteins after GEV-mediated induction of TEV; conditions: 1 μM β-estradiol, YPD; for half-life of NDeg-tagged protein: power-law fit of 10, 20 and 40-minute timepoints
Experimental: Total protein was extracted from ˜10 mL aliquots of cultures at ˜2×10^7 cells/mL using YPX extraction kit (Protein Discovery, Knoxville, Tenn.) with the addition of protease inhibitors (Roche tablets, cat#11836170001). Proteins were separated using Invitrogen NuPage precast 10% Bis-Tris gels and transferred to Invitrolon PVDF (Invitrogen cat#LC2005) according to the manufacturer's protocols. Primary antibody for the β-Myc epitope was mouse anti-human c-Myc from BD Pharmingen (cat#51-1485GR). Secondary antibody was goat anti-mouse-HRP (cat#115-035-003) from Jackson ImmunoResearch. Primary antibody dilution was typically 1/1000 and secondary antibodies were used at 1/10,000 dilution. Immunoreactive peptides were detected by incubation with ECL^+ detection reagent (Amersham/GE RPN2132) and imaging on HyBlot CL autoradiography film (Denville Scientific, Metuchen, N.J.). As a loading control, blots were probed with mouse monoclonal anti-β-Actin antibody loading control cat#ab8224, Abcam, Cambridge, Mass. ( 1/600 or 1/2000). Secondary antibody was as above, goat anti-mouse-HRP. Protein levels were quantified with the “Gel Analysis” feature in ImageJ and normalized to the t=0 levels in each time course.
MET4 and MET31 genes were chosen for use in a proof of principle experiment to exemplify the protein depletion method (FIG. 8). We constructed Ndeg-modified MET4 and MET31 alleles in separate strains containing GEV and PGAL1-TEV (see Materials and Methods). Cells were grown in rich medium (YPD) and treated with 1 μMβ-estradiol at ˜2×10^7 cells/mL. Western blots were performed on proteins extracted at several time points after induction (FIG. 9). Treatment of cultures with 1 μM β-estradiol had no effect on levels of Met4p-13Myc or Met31p-13Myc lacking NDeg (FIG. 9A, 9B).

[6] = two hours following saturating (1 μM) β-estradiol addition

## C[C@]12CC[C@@H]3c4ccc(O)cc4CC[C@H]3[C@@H]1CC[C@@H]2O [β-estradiol]
[1]; 3-hour time course, K-means clustering of time course data
  share of the entire genome affected by GEV-mediated activation: less than 2%
[1]; two hours following 1 μM β-estradiol
  share of all S. cerevisiae genes changed 2-fold: about 3%
[1]; [6]
  number of genes that decrease 2-fold: 105 genes
  number of genes that increase 2-fold: 94 genes
[2]
  CBF1 transcript level, share of maximal value: ~70%
[3]; 10 nM β-estradiol
  effect on growth of GEV-containing cells: no longer show the growth defect
[3]; high concentrations of β-estradiol
  effect on growth of GEV-containing cells: slowing of growth
[3]; strain lacking the GEV system
  β-estradiol toxicity, growth of a strain lacking the GEV system: slow growth does not occur
[4]
  concentration at which the initial rate of localization achieved its maximum: ≥ 1 µM

B1: NDeg-Met31p-13Myc: N-degron-tagged, 13Myc-tagged Met31p target protein (DBY12234) (protein, UniProt Q03081 1-177, looked up)
Transcriptional regulator …: MKLAQDMNVDEIFLKQAAEAIAVISSSPTHTDPIIRELLHRIRQSSPLSAVIPAPENVLKAGEPENMARGLIRIPETQTKRTGGNNHSKEGAQLYSCAKCQLKFSRSSDLRRHEKVHSLVLPHICSNCGKGFARKDALKRHSNTLTCQRNRKKLSEGSDVDVDELIKDAIKNGTGLL
modifications: N-degron tag, 13Myc tag
[5]
  half-life of NDeg-tagged protein: 13.75 min

B2: Met31p-13Myc: 13Myc-tagged Met31p lacking NDeg (DBY12235), control protein (protein, UniProt Q03081 1-177, looked up)
Transcriptional regulator …: B1 Transcriptional regulator …
modifications: C-terminal 13Myc tag
notes: 13Myc-tagged Met31p lacking NDeg (DBY12235), control protein
[5]
  effect of β-estradiol treatment on levels of protein lacking NDeg: no effect

B3: NDeg-Met4p-13Myc: N-degron-tagged, 13Myc-tagged Met4p target protein (DBY12055) (protein, UniProt P32389 1-672, looked up)
Transcriptional activator of …: MKQEQSHEGDSYSTEFINLFGKDTATHPSSNNGANNNGMGSTNSLDQFVATASSSSSLVTSSENRRPLIGDVTNRGNTNLYDHAVTPEILLEQLAYVDNFIPSLDNEFSNVDWNVNTTHNNANNNGADTFSSINANPFDLDEQLAIELSAFADDSFIFPDEDKPSNNNNNSNNGNDDHSNHDVLHEDPSTNNRQRNPHFLTQRRNTFLTSQYDQSKSRFSSKNKRNGNNGETNNFGDNMQNNHPFEPNFMGSPSQFPADATNMTSIDHGGFTNVDITSTENNTTGDNGVDALSNLLHRTTHTPNRSSPLSNVTSAQNSSSQQRKHSESKVDSNSDNNSSNKAPNITVPDYSIIPTSVLVTLLPRVNVPNGAYNSLISAGFDNDQIDAIAAIMAYHHQKKIRENNSNNNKNINTNDSQEAPILKNINELLSVLIPPSPAETRGPTTLSTSPSFNEHGVVAEASFLSSILELGIKHPKSNNIHNQRQPSRNDHKISRESDGNNGNDNVHHNNAVIKSSTTRGDEIAKIRSEPTLNASSSDHKENSLKRSHSGDLKNKKVPVDRKYSDNEDDEYDDADLHGFEKKQLIKKELGDDDEDLLIQSKKSHQKKKLKEKELESSIHELTEIAASLQKRIHTLETENKLLKNLVLSSGETEGIKKAESLKKQIFEKVQKE
modifications: N-degron tag; 13Myc tag
[5]
  half-life of NDeg-tagged protein: 16 min

B4: Met4p-13Myc: 13Myc-tagged Met4p lacking NDeg (DBY11440), control protein (protein, UniProt P32389 1-672, looked up)
Transcriptional activator of …: B3 Transcriptional activator of …
modifications: 13Myc tag
notes: 13Myc-tagged Met4p lacking NDeg (DBY11440), control protein
[5]
  effect of β-estradiol treatment on levels of protein lacking NDeg: no effect
